Where two headings read alike, the source gives them in different places. Values belong to the compound of their own block, whether it stands above or below them.
Assays:
[1] = target: T1, truncated elephant shark GR (Elephant shark GR-DBD-hinge-LBD) (Callorhinchus milii, UniProt V9KGN8); assay: cell-based; parameters: species or system HEK293
T1 sequence (V9KGN8 346-704 limits assumed): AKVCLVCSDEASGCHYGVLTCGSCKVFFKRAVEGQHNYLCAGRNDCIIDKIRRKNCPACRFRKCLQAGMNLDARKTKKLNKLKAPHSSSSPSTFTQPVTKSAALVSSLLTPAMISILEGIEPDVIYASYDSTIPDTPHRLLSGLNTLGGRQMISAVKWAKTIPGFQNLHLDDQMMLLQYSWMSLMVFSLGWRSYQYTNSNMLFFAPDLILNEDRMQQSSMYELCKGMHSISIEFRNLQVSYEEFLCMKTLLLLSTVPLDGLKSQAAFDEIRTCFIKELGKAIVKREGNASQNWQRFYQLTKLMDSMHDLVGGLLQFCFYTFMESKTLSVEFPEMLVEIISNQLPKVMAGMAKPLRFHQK

[2] = target: T2, truncated elephant shark MR (Elephant shark MR-DBD-hinge-LBD) (Callorhinchus milii, UniProt A0A4W3I5J5); assay: cell-based; parameters: species or system HEK293
T2 sequence (A0A4W3I5J5 575-956 limits assumed): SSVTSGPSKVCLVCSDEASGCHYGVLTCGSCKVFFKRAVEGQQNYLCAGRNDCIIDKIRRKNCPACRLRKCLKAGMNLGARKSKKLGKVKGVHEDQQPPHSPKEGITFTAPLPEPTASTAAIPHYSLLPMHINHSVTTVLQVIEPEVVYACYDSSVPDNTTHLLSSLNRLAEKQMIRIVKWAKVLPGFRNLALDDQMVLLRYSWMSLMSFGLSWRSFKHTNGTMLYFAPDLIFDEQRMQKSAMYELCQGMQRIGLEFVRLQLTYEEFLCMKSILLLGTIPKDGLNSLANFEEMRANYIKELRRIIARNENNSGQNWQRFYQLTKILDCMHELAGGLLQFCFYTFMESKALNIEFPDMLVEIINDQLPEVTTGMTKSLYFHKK

[3] = target: T3, full-length elephant shark GR (Callorhinchus milii, UniProt V9KGN8); assay: cell-based; parameters: species or system HEK293
T3 sequence (V9KGN8 1-704): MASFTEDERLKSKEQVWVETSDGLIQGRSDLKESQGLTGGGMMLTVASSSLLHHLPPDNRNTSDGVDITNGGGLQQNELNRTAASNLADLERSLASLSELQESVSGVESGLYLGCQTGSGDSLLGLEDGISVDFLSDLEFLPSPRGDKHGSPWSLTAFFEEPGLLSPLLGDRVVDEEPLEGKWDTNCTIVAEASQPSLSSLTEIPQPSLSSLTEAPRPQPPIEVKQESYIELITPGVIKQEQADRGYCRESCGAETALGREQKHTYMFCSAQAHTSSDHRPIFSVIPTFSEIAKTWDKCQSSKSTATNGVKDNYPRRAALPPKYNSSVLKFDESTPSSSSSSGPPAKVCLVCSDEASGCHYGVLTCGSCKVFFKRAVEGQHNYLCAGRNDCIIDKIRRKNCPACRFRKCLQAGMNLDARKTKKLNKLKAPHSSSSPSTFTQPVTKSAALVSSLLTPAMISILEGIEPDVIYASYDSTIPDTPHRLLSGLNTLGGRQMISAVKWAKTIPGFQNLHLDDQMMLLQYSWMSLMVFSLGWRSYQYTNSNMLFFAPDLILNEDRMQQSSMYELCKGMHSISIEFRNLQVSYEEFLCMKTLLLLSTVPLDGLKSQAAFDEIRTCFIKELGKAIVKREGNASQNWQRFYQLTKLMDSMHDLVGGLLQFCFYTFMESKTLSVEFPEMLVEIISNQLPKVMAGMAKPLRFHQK

[4] = system: Elephant shark Chimera MR-NTD+GR-DBD-hinge-LBD; assay: transactivation assay, MMTV-luciferase reporter, HEK293 cells; format: cell-based, Callorhinchus milii; details: agonist
[5] = target: T2, truncated elephant shark MR (Elephant shark MR-DBD-hinge-LBD); assay: cell-based; parameters: species or system HEK293; remark: listed apart in the source
[6] = target: T4, GAL4-DBD+elephant shark GR-hinge-LBD (Callorhinchus milii, UniProt V9KGN8); assay: cell-based; parameters: species or system HEK293
T4 sequence (V9KGN8 422-704 limits assumed): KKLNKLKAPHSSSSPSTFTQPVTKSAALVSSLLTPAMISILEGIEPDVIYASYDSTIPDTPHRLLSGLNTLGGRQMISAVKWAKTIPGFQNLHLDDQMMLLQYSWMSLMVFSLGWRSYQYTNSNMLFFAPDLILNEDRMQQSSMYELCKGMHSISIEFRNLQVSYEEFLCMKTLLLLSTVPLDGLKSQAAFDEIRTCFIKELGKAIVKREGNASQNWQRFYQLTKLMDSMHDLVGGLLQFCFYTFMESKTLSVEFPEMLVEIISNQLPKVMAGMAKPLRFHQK

[7] = target: T5, full-length elephant shark MR (Callorhinchus milii, UniProt A0A4W3I5J5); assay: cell-based; parameters: species or system HEK293
T5 sequence (A0A4W3I5J5 1-956): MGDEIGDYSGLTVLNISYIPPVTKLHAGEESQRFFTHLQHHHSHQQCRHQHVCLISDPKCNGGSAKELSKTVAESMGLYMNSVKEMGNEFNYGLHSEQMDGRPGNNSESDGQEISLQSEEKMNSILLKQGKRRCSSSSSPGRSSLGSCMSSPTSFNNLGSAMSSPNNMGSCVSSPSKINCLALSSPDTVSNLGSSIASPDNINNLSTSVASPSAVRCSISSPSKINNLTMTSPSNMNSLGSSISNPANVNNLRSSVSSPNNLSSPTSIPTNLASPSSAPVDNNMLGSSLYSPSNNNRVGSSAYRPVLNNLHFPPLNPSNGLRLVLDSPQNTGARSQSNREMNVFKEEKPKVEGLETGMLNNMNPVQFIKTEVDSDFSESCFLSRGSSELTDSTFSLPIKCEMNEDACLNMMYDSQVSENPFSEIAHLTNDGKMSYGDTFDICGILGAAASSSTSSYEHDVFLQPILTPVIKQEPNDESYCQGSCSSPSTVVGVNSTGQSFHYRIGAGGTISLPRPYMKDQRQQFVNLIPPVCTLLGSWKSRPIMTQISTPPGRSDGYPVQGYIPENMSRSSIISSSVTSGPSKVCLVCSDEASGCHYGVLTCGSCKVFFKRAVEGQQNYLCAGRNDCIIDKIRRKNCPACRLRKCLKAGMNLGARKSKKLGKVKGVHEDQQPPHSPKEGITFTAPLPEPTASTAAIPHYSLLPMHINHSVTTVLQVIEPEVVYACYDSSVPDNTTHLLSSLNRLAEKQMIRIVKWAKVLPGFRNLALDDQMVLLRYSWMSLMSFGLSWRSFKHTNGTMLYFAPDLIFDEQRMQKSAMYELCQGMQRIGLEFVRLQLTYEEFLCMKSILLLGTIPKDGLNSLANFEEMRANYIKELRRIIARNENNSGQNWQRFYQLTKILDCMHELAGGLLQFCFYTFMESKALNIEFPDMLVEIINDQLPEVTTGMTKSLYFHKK

[8] = system: Elephant shark Chimera GR-NTD+MR-DBD-hinge-LBD; details: agonist
[9] = target: truncated elephant shark MR (Elephant shark MR-DBD-hinge-LBD) (Callorhinchus milii, UniProt A0A4W3I5J5); assay: cell-based
[10] = target: T3, full-length elephant shark GR; assay: transactivation assay, MMTV-luciferase reporter, HEK293 cells; format: cell-based
[11] = target: T3, full-length elephant shark GR; assay: luciferase reporter transactivation, HEK293 cells; format: cell-based
[12] = target: T3, full-length elephant shark GR; assay: inhibition of dexamethasone-activated luciferase reporter, HEK293 cells; format: cell-based
[13] = HEK293, read-out: Corticosterone % Relative Induction, GR
[14] = HEK293, read-out: Corticosterone % Relative Induction, MR
[15] = HEK293, read-out: Prog % Relative Induction, MR
[16] = HEK293, read-out: DOC % Relative Induction, GR
[17] = HEK293, read-out: DOC % Relative Induction, MR
[18] = HEK293, read-out: Aldo % Relative Induction, GR
[19] = HEK293, read-out: Cortisol % Relative Induction, GR
[20] = HEK293, read-out: Cortisol % Relative Induction, MR

Structure (SMILES): C[C@]12CC[C@H]3[C@@H](CCC4=CC(=O)CC[C@@]43C)[C@@H]1CC[C@@H]2C(=O)CO [11-deoxycorticosterone]
- Emax [1, 16]: 30%
- EC50 [8]: 0.03 nM
- Emax [3, 16]: 53%
- Emax [5, 17]: 77%
- EC50 [9]: 0.1 nM
- Emax [7, 17]: 86%
- EC50 [10]: ~28 nM

Structure (SMILES): CC(=O)[C@H]1CC[C@H]2[C@@H]3CCC4=CC(=O)CC[C@@H]4[C@H]3CC[C@]12C [19norProg]
- EC50 [2]: 0.2 nM
- Emax ([7]; HEK293, read-out: 19norProg % Relative Induction, MR): 79%

Structure (SMILES): CC#C[C@]1(O)CC[C@H]2[C@@H]3CCC4=CC(=O)CCC4=C3[C@@H](c3ccc(N(C)C)cc3)C[C@@]21C [RU486]
- EC50 [11]: 8.7 nM
- IC50 [12]: 2.2 nM

Structure (SMILES): C[C@]12CCC(=O)C=C1CC[C@@H]1[C@@H]2[C@@H](O)C[C@@]2(C)[C@H]1CC[C@]2(O)C(=O)CO [cortisol]
- Emax [1, 19]: 112%
- EC50 [2]: 1.1 nM
- Emax [3, 19]: 88%
- Emax [5, 20]: 117%
- Emax [7, 20]: 118%
- EC50 [10]: ~35 nM

Further lines, results first:

- Emax [1, 13]: 100%
- EC50 [2]: 0.58 nM
- Emax [3, 13]: 100%
- EC50 [4]: 13 nM
- Emax [5, 14]: 111%
- Emax [6, 13]: 100%
- Emax [7, 14]: 88%
Structure (SMILES): C[C@]12C[C@H](O)[C@H]3[C@@H](CCC4=CC(=O)CC[C@@]43C)[C@@H]1CC[C@@H]2C(=O)CO [corticosterone]

- Emax [5, 15]: 78%
- Emax [7, 15]: 38%
Structure (SMILES): CC(=O)[C@H]1CC[C@H]2[C@@H]3CCC4=CC(=O)CC[C@]4(C)[C@H]3CC[C@]12C [progesterone]

- Emax [1, 18]: 109%
- EC50 [2]: 0.26 nM
- Emax [3, 18]: 92%
- Emax [6, 18]: 81%
- EC50 [10]: ~24 nM
Structure (SMILES): C[C@]12CCC(=O)C=C1CC[C@@H]1[C@@H]2[C@@H](O)C[C@]2(C=O)[C@@H](C(=O)CO)CC[C@@H]12 [aldosterone]

From doi:10.1101/822718v2 (biorxiv, 2020)
